From the supplement of paper PMC10307832 come the findings set out here.

What all share (experiment): relative viability (nuclei count vs DMSO), 5 days (fraction); higher = more cells survive
Compound in test [1]: CC1=CC(=C(N1C2=CC=C(C=C2)Cl)C)C(=O)CN3CCCCC3 [IU1-47]
In short, it runs like this:
(§1)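 Viability is treated-well nuclei as a fraction of vehicle-well nuclei, reported as the median across plates. Before counting, lung cancer cell lines were kept overnight at 37 °C in 1536-well plates, pinned with five √10-spaced library-drug doses on vehicle-anchored plates, and left 5 days without medium change, then fixed, permeabilised and Hoechst-stained in one step, imaged at 4× and counted by MetaXpress. A plate passed only if control CV was below 25% and at least one doubling occurred.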

Compound in test [2]: Cc1nc(C(=O)NCC(=O)O)c(O)c2ccc(Oc3ccccc3)cc12 [FG-4592]
The procedure, abridged:
as §1

Compound in test [3]: Cc1nc(C(=O)NCC(=O)O)c(O)c2ccc(Oc3ccccc3)cc12 [FG-4592] + CC1(C)CCC(c2ccc(Cl)cc2)=C(CN2CCN(c3ccc(C(=O)NS(=O)(=O)c4ccc(N[C@H](CCN5CCOCC5)CSc5ccccc5)c(S(=O)(=O)C(F)(F)F)c4)cc3)CC2)C1 [Navitoclax] (partner 0.5 µM)
The procedure, abridged:
(§2)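 Lung cancer cell lines were seeded in 1536-well plates and dosed by pin tool the next day, with either a single drug or a fixed anchor-drug dose combined with five library-drug doses (not always all listed) spaced in √10 steps. Five days later, one step fixed the cells and stained their nuclei (final 0.05% Triton X-100, 1% formaldehyde, 1 ug/ml Hoechst), and nuclei were counted on 4× images. Relative viability is the nuclei count in treated wells divided by the count in vehicle wells, and each value is the median of duplicate plates.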

Compound in test [4]: CC1=CC(=C(N1C2=CC=C(C=C2)Cl)C)C(=O)CN3CCCCC3 [IU1-47] + CC(=O)Nc1cccc(-n2c(=O)n(C3CC3)c(=O)c3c(Nc4ccc(I)cc4F)n(C)c(=O)c(C)c32)c1 [Trametinib] (partner 0.02 µM)
In short, it runs like this: as §2

Take NCI-H2170: the relative viability worked out at 1.24 in test [1] (0.08 µM); 1.15 in test [1] (0.253 µM); 1.07 in test [1] (0.8 µM); 0.996 in test [1] (2.53 µM); 1.04 in test [1] (8 µM); 0.911 in test [2] (0.08 µM). Also, the relative viability in test [2] (0.253 µM) amounted to 0.975; in test [2] (0.8 µM), 0.851; in test [2] (2.53 µM), 0.921; in test [2] (8 µM) it was 0.718; in test [3] (first compound 0.08 µM) it was 0.708; in test [3] (first compound 0.253 µM), 0.593. The relative viability in test [3] (first compound 0.8 µM) is 0.691; in test [3] (first compound 2.53 µM), 0.485; in test [3] (first compound 8 µM) it was 0.322; in test [4] (first compound 0.08 µM) it was 0.991; in test [4] (first compound 0.253 µM), 0.913; in test [4] (first compound 0.8 µM), 1. Also, the relative viability in test [4] (first compound 2.53 µM) was found to be 0.9; in test [4] (first compound 8 µM), 0.638.
On to NCI-H1395, for which the relative viability in test [1] (0.08 µM) stood at 0.879; in test [1] (0.253 µM), 0.953; in test [1] (0.8 µM) it was 0.884; in test [1] (2.53 µM), 0.534; in test [1] (8 µM), 0.791; in test [2] (0.08 µM) it was 0.86. Moreover, the relative viability came out at 0.795 in test [2] (0.253 µM); 0.672 in test [2] (0.8 µM); 0.975 in test [2] (2.53 µM); 0.761 in test [2] (8 µM); 1.37 in test [3] (first compound 0.08 µM); 1.01 in test [3] (first compound 0.253 µM). Moreover, the relative viability was found to be 1.02 in test [3] (first compound 2.53 µM); 0.958 in test [3] (first compound 8 µM); 1.16 in test [4] (first compound 0.08 µM); 1.13 in test [4] (first compound 0.253 µM); 1.06 in test [4] (first compound 0.8 µM); 0.914 in test [4] (first compound 2.53 µM). Besides, the relative viability in test [4] (first compound 8 µM) was determined as 0.803.
As for NCI-H838, the relative viability in test [1] (0.08 µM) amounted to 1.01; in test [1] (0.253 µM) it was 1.05; in test [1] (0.8 µM), 1.04; in test [1] (2.53 µM) it was 1.01; in test [1] (8 µM) it was 0.955; in test [2] (0.08 µM), 0.962. In addition, the relative viability in test [2] (0.253 µM) turned out to be 0.937; in test [2] (0.8 µM), 0.853; in test [2] (2.53 µM), 0.946; in test [2] (8 µM), 0.923; in test [3] (first compound 0.08 µM) it was 1.27; in test [3] (first compound 0.253 µM), 1.09. Moreover, the relative viability came to 1.09 in test [3] (first compound 0.8 µM); 1.2 in test [3] (first compound 2.53 µM); 1.11 in test [3] (first compound 8 µM); 0.521 in test [4] (first compound 0.08 µM); 0.472 in test [4] (first compound 0.253 µM); 0.581 in test [4] (first compound 0.8 µM). The relative viability came to 0.501 in test [4] (first compound 2.53 µM) and 0.53 in test [4] (first compound 8 µM).
In the case of CAL-12T, the relative viability in test [1] (0.08 µM) is 0.916; in test [1] (0.253 µM), 0.919; in test [1] (0.8 µM), 1.03; in test [1] (2.53 µM), 0.826; in test [1] (8 µM) it was 0.879; in test [2] (0.08 µM), 0.973. Moreover, the relative viability is 0.864 in test [2] (0.253 µM); 1.05 in test [2] (0.8 µM); 0.906 in test [2] (2.53 µM); 0.894 in test [2] (8 µM); 1.22 in test [3] (first compound 0.08 µM); 1.18 in test [3] (first compound 0.253 µM). Also, the relative viability in test [3] (first compound 0.8 µM) stood at 1.33; in test [3] (first compound 2.53 µM), 1.05; in test [3] (first compound 8 µM) it was 0.764; in test [4] (first compound 0.08 µM), 0.353; in test [4] (first compound 0.253 µM), 0.368; in test [4] (first compound 0.8 µM), 0.309. Further, the relative viability came to 0.289 in test [4] (first compound 2.53 µM) and 0.32 in test [4] (first compound 8 µM).
